Like-named read-outs stand apart in the source and are kept apart here.
Assay: Dog PK study #3 (Compound A PO once daily 5 days, 5/10/20 mg/kg; PK, body weight, hematology)
Type: in vivo, beagle dogs
Conditions: for Tmax / AUC(0-inf) / Cmax / MRT inf / MRT last / half-life / AUC(0-t): male, beagle, dog, plasma, po; for AUC(0-inf): read-out: AUC0-inf; for Cmax: read-out: Cmax; for MRT inf: read-out: MRT0-inf; for MRT last: read-out: MRT0-last; for half-life: read-out: T½ (converted)
Experimental: For the third dog pharmacokinetic study, three solutions of different concentrations of Compound A were prepared in 5% DMSO/15% PEG-400/80% (10% VE-TPGS) as outlined in Table 2E. The Compound A solutions were administered to animals orally (PO) once daily over a five-day period. Body weight was recorded prior to dosing, and detailed clinical observations were made prior to dosing and throughout the study, as needed.
Animals were divided into Day 1 and Day 5 sample collection groups, with animals in the Day 1 collection group having blood samples taken prior to dosing and at 0.25, 0.5, 1, 2, 4, 8, and 24 hours after dosing on day 1. Animals in the Day 5 collection group having blood samples taken prior to dosing and at 0.25, 0.5, 1, 2, 4, 8, and 24 hours after dosing on day 5. Study groups are outlined in Table 3D.
Blood samples (~0.3 mL) were collected on day according to the following schedule (0.25, 0.5, 1, 2, 4, 8, and 24 h) after day 5 administration of Compound A by venipuncture of peripheral veins except for the dosing vein, and EDTA-K2 was used as anticoagulant. Within 30 minutes of collection, the samples were centrifuged at approximately 2000 times g-force for 10 minutes at 4° C. to obtain blood plasma. The plasma samples were immediately divided into two aliquots (~75 μL each), transferred to a cryogenic vial, and stored in a freezer at −75±15° C. prior to analysis.
The concentration of Compound A in the blood plasma was determined through LC-MS as previously described. Briefly, the experiments were conducted on a DMPK-LCMS-14-SMBA Triple Quad 6500 Plus instrument with an ACQUITY UPLC BEH C18 1.7 μm (50×2.1 mm) column. The matrix was male beagle dog plasma potassium (K2) EDTA A gradient of 95% water (0.1% formic acid and 2 mM HCOONH4)/95% acetonitrile (0.1% formic acid and 2 mM HCOONH4) was used as the mobile phase. The sample flow rate was 0.6 mL/min.
The samples were then vortex-mixed for 10 minutes at 800 rpm and centrifuged for 15 minutes at 3220×g at 4° C. 50 μL aliquots of supernatant were transferred to a clean 96-well plate and centrifuged for 5 minutes at 3220×g at 4° C. Samples were then injected into the LC/MS/MS system for quantitative analysis.
The gathered data were used for pharmacokinetic calculations using T1/2, CO, AUClast, AUCinf, MRTinf, Cl, Vss, and Number of Points for Regression as parameters.
The cell composition (hematology) of blood samples was analyzed at day 5. Analyses identified the total number of white blood cells, neutrophils, lymphocytes, monocytes, eosinophils, basophils, and platelets in collected samples.

[1] = 5 mg/kg, Day 1, 5 mg/kg dose PO, individual animals
[2] = 5 mg/kg, Day 1, 5 mg/kg dose PO, mean
[3] = 5 mg/kg, Day 5, 5 mg/kg dose PO, individual animals
[4] = 5 mg/kg, Day 5, 5 mg/kg dose PO, mean
[5] = 10 mg/kg, Day 1, 10 mg/kg dose PO, individual animals
[6] = 10 mg/kg, Day 1, 10 mg/kg dose PO, mean
[7] = 10 mg/kg, Day 5, 10 mg/kg dose PO, individual animals
[8] = 10 mg/kg, Day 5, 10 mg/kg dose PO, mean
[9] = 20 mg/kg, Day 1, 20 mg/kg dose PO, individual animals
[10] = 20 mg/kg, Day 1, 20 mg/kg dose PO, mean
[11] = 20 mg/kg, Day 5, 20 mg/kg dose PO, individual animals
[12] = 20 mg/kg, Day 5, 20 mg/kg dose PO, mean
[13] = single PO administration Day 1, 10.0 over 5.00 mg/kg, dose ratio 2.00
[14] = single PO administration Day 1, 20.0 over 5.00 mg/kg, dose ratio 4.00
[15] = single PO administration Day 1, 20.0 over 10.0 mg/kg, dose ratio 2.00

What does the source list for Cn1cc(-c2ccccc2)c(-c2cn(C)c(=O)c3[nH]c(-c4cnn(C(F)(F)F)c4)cc23)cc1=O [Compound A, 6-methyl-4-(1-methyl-2-oxo-5-phenyl-1,2-dihydropyridin-4-yl)-2-(1-(trifluoromethyl)-1H-pyrazol-4-yl)-1,6-dihydro-7H-pyrrolo[2,3-c]pyridin-7-one]?
Tmax [1]: 8 h; AUC(0-inf) [1]: 7.88 µg·h/mL; Cmax [1]: 785 ng/mL; MRT inf [1]: 9.3 h; MRT last [1]: 9.77 h; half-life [1]: 5.63 h; AUC(0-t) [2]: 9.5 µg·h/mL; Tmax [2]: 6 h; Cmax [2]: 736 ng/mL; MRT last [2]: 8.8 h; AUC(0-t) [3]: 17.8 µg·h/mL; Tmax [3]: 2 h; Cmax [3]: 1270 ng/mL; MRT inf [3]: 20 h; MRT last [3]: 9.78 h; AUC(0-t) [4]: 14.5 µg·h/mL; Tmax [4]: 2 h; AUC(0-inf) [4]: 18.9 µg·h/mL; Cmax [4]: 1160 ng/mL; MRT inf [4]: 15.1 h; MRT last [4]: 8.93 h; half-life [4]: 9.96 h; AUC(0-t) [5]: 19.5 µg·h/mL; Tmax [5]: 4 h; AUC(0-inf) [5]: 20.5 µg·h/mL; Cmax [5]: 2010 ng/mL; MRT inf [5]: 8.8 h; MRT last [5]: 7.59 h; half-life [5]: 5.24 h; AUC(0-t) [6]: 17.5 µg·h/mL; Tmax [6]: 3 h; AUC(0-inf) [6]: 18.6 µg·h/mL; Cmax [6]: 1730 ng/mL; MRT inf [6]: 9.17 h; MRT last [6]: 7.72 h; half-life [6]: 5.6 h; AUC(0-t) [7]: 20.5 µg·h/mL; Tmax [7]: 2 h; AUC(0-inf) [7]: 23 µg·h/mL; Cmax [7]: 1740 ng/mL; MRT inf [7]: 11.3 h; MRT last [7]: 8.5 h; half-life [7]: 7.3 h; AUC(0-t) [8]: 28.3 µg·h/mL; Tmax [8]: 2 h; AUC(0-inf) [8]: 34.1 µg·h/mL; Cmax [8]: 2260 ng/mL; MRT inf [8]: 13.4 h; MRT last [8]: 8.95 h; half-life [8]: 8.8 h; AUC(0-t) [9]: 49.4 µg·h/mL; Tmax [9]: 4 h; Cmax [9]: 4330 ng/mL; MRT inf [9]: 9.65 h; MRT last [9]: 8.19 h; AUC(0-t) [10]: 67.9 µg·h/mL; Tmax [10]: 4 h; AUC(0-inf) [10]: 84.7 µg·h/mL; Cmax [10]: 5160 ng/mL; MRT inf [10]: 13.9 h; MRT last [10]: 9.15 h; half-life [10]: 8.67 h; Tmax [11]: 2 h; Cmax [11]: 3510 ng/mL; AUC(0-t) [12]: 30.2 µg·h/mL; Tmax [12]: 2 h; AUC(0-inf) [12]: 1070 µg·h/mL; Cmax [12]: 2860 ng/mL; MRT inf [12]: 483 h; MRT last [12]: 6.3 h; half-life [12]: 334 h; mortality (one animal of the highest dose, 5 day PO study): found dead on day 6; AUC0-last Ratio (dose proportionality) [13]: 1.85; Cmax Ratio (dose proportionality) [13]: 2.35; AUC0-last Ratio (dose proportionality) [14]: 7.15; Cmax Ratio (dose proportionality) [14]: 7.02; AUC0-last Ratio (dose proportionality) [15]: 3.87; Cmax Ratio (dose proportionality) [15]: 2.99
